For the test the following is noted: single subject, forehead sensor, after propofol; FIG. 6B.

For the compound `CC(C)c1cccc(C(C)C)c1O` [propofol], the “EDA skin conductance response (SCR) after induction of general anesthesia” value is listed as < 5 micro-Siemens.

For the origin of these results see patent US20250213183A1, “SYSTEM AND METHOD OF MONITORING NOCICEPTION AND ANALGESIA DURING ADMINISTRATION OF GENERAL ANESTHESIA” (The General Hospital Corporation, priority 2022, published 2025).
